How the values were obtained:
[1] = test system: antibodies in sera from SARS patients (sera 1a, 1b, 2, 6, 37, 62, London, SARS-yellow, SARS-green); assay type: binding, human; set-up: Binding of serum 6 to linear peptides of protein X1 of SARS-CoV Urbani / Binding of serum 37 to linear peptides of protein X1 of SARS-CoV Urbani / Binding of serum 6 to looped/cyclic peptide (PEPSCAN-ELISA) / Binding of serum 37 to looped/cyclic peptide (PEPSCAN-ELISA) / Binding of serum 37 to looped/cyclic peptides of protein X1 of SARS-CoV Urbani / Binding of serum 6 to linear peptides of protein X2 / Binding of serum 37 to linear peptides of protein X2 / Binding of serum 37 to looped/cyclic peptides of protein X2 of SARS-CoV Urbani / Binding of serum 6 to linear peptides of protein M of SARS-CoV Urbani / Binding of serum 37 to linear peptides of protein M of SARS-CoV Urbani / Binding of serum 6 to looped/cyclic peptides of protein M of SARS-CoV Urbani / Binding of serum 37 to looped/cyclic peptides of protein M of SARS-CoV Urbani / Binding of serum 6 to linear peptides of protein X3 of SARS-CoV Urbani / Binding of serum 37 to linear peptides of protein X3 of SARS-CoV Urbani / Binding of serum 37 to looped/cyclic peptides of protein X3 of SARS-CoV Urbani / Binding of serum 6 to linear peptides of protein X4 of SARS-CoV Urbani / Binding of serum 37 to linear peptides of protein X4 of SARS-CoV Urbani / Binding of serum 37 to looped/cyclic peptides of protein X4 of SARS-CoV Urbani / Binding of serum 6 to linear peptides of protein X5 of SARS-CoV Urbani / Binding of serum 37 to linear peptides of protein X5 of SARS-CoV Urbani / Binding of serum 37 to looped/cyclic peptides of protein X5 of SARS-CoV Urbani / Binding of serum 6 to linear peptides of protein N of SARS-CoV Urbani / Binding of serum 37 to linear peptides of protein N of SARS-CoV Urbani / Binding of serum 6 to linear peptide (PEPSCAN-ELISA) / Binding of serum 1a to looped/cyclic peptides of protein N of SARS-CoV Urbani / Binding of serum 1b to looped/cyclic peptides of protein N of SARS-CoV Urbani / Binding of serum 2 to looped/cyclic peptides of protein N of SARS-CoV Urbani / Binding of serum 6 to looped/cyclic peptides of protein N of SARS-CoV Urbani / Binding of serum 37 to looped/cyclic peptides of protein N of SARS-CoV Urbani / Binding of serum 62 to looped/cyclic peptides of protein N of SARS-CoV Urbani / Binding of serum London to looped/cyclic peptides of protein N of SARS-CoV Urbani / Binding of serum SARS-green to looped/cyclic peptides of protein N of SARS-CoV Urbani: unit not given here
[2] = test system: rabbit serum obtained by immunizing a rabbit with the SARS-CoV strain Frankfurt 1; assay type: binding; set-up: Binding of a rabbit serum to linear peptides / Binding of a rabbit serum to looped peptides / Rabbit serum linear peptides / Rabbit serum looped peptides / Binding of a rabbit serum to linear peptides of protein N of SARS-CoV Urbani (Rabbit serum linear peptides) / Binding of a rabbit serum to looped/cyclic peptides of protein N of SARS-CoV Urbani (Rabbit serum looped peptides): unit not given here
[3] = test system: recombinant human anti-SARS-CoV antibody 03-018; assay type: binding; set-up: Binding of antibody 03-018 to linear peptides of the N protein of SARS-CoV Urbani / Binding of antibody 03-018 to looped/cyclic peptides of the N protein of SARS-CoV Urbani: unit not given here
[4] = test system: control sera (pooled serum of ten healthy LUMC hospital workers; commercial negative donor pooled serum from the Dutch bloodbank); assay type: binding, human; set-up: Binding of Control serum LUMC to linear peptides / Binding of Control serum Blood-bank to linear peptides / Binding of Control serum LUMC to looped peptides / Binding of Control Serum Blood-Bank to Looped peptides / Binding of Control serum LUMC to linear peptides of the protein M of SARS-CoV Urbani / Binding of Control serum Blood-bank to linear peptides of the protein M of SARS-CoV Urbani / Binding of Control serum LUMC to looped peptides of the protein M of SARS-CoV Urbani / Binding of Control Serum Blood-Bank to Looped peptides of the protein M of SARS-CoV Urbani: unit not given here

Row | Sequence | Binding of serum 1a to linear peptide (PEPSCAN-ELISA) [1] | Binding of serum 1a to looped/cyclic peptides of protein N of SARS-CoV Urbani [1] | Binding of serum 1b to linear peptide (PEPSCAN-ELISA) [1] | Binding of serum 1b to looped/cyclic peptides of protein N of SARS-CoV Urbani [1] | Binding of serum 2 to linear peptide (PEPSCAN-ELISA) [1] | Binding of serum 2 to looped/cyclic peptides of protein N of SARS-CoV Urbani [1] | Binding of serum 6 to linear peptide (PEPSCAN-ELISA) [1] | Binding of serum 6 to looped/cyclic peptides of protein N of SARS-CoV Urbani [1] | Binding of serum 37 to linear peptide (PEPSCAN-ELISA) [1] | Binding of serum 37 to looped/cyclic peptides of protein N of SARS-CoV Urbani [1] | Binding of serum 62 to linear peptide (PEPSCAN-ELISA) [1] | Binding of serum 62 to looped/cyclic peptides of protein N of SARS-CoV Urbani [1] | Binding of serum London to linear peptide (PEPSCAN-ELISA) [1] | Binding of serum London to looped/cyclic peptides of protein N of SARS-CoV Urbani [1] | Binding of serum SARS-green to linear peptide (PEPSCAN-ELISA) [1] | Binding of serum SARS-green to looped/cyclic peptides of protein N of SARS-CoV Urbani [1] | Binding of serum SARS-yellow to linear peptide (PEPSCAN-ELISA) [1] | Binding of serum SARS-yellow to looped/cyclic peptides of protein N of SARS-CoV Urbani [1] | Binding of antibody 03-018 to linear peptides of the N protein of SARS-CoV Urbani [3] | Binding of antibody 03-018 to looped/cyclic peptides of the N protein of SARS-CoV Urbani [3] | further results
1 | ASKKPRQKRTATKQY | 0.2 | 0.3 | 0.1 | 0.1 | 0.3 | 0.3 | 0.2 | 0.2 | 0.7 | 0.5 | 0.6 | 0.5 | 0.5 | 0.4 | 0.3 | 0.1 | 0.5 | 0.2 | 0.1 | 0.2 | Binding of a rabbit serum to linear peptides of protein N of SARS-CoV Urbani (Rabbit serum linear peptides) [2]: 0.2; Binding of a rabbit serum to looped/cyclic peptides of protein N of SARS-CoV Urbani (Rabbit serum looped peptides) [2]: 0.4; Binding of Control Serum Blood-Bank to Looped peptides [4]: 0.6; Binding of Control serum Blood-bank to linear peptides [4]: 0.7; Binding of Control serum LUMC to linear peptides [4]: 0.6; Binding of Control serum LUMC to looped peptides [4]: 0.5
2 | ASSRSSSRSRGNSRN | 0.2 | 0.3 | 0.1 | 0.2 | 0.2 | 0.4 | 0.2 | 0.3 | 0.6 | 0.6 | 0.5 | 0.5 | 0.5 | 0.4 | 0.3 | 0.2 | 0.7 | 0.4 | 0.1 | 0.2 | Binding of a rabbit serum to linear peptides of protein N of SARS-CoV Urbani (Rabbit serum linear peptides) [2]: 0.3; Binding of a rabbit serum to looped/cyclic peptides of protein N of SARS-CoV Urbani (Rabbit serum looped peptides) [2]: 0.7; Binding of Control Serum Blood-Bank to Looped peptides [4]: 0.6; Binding of Control serum Blood-bank to linear peptides [4]: 0.6; Binding of Control serum LUMC to linear peptides [4]: 0.7; Binding of Control serum LUMC to looped peptides [4]: 0.6
3 | ATKQYNVTQAFGRRG | 0.3 | 0.4 | 0.2 | 0.3 | 0.2 | 0.5 | 0.2 | 0.5 | 0.7 | 0.7 | 0.6 | 0.7 | 0.5 | 1.2 | 0.3 | 0.2 | 0.8 | 0.8 | 0.1 | 0.3 | Recognition of the peptide by the rabbit serum [2]: recognized; Binding of Control Serum Blood-Bank to Looped peptides [4]: 0.8; Binding of Control serum Blood-bank to linear peptides [4]: 0.9; Binding of Control serum LUMC to linear peptides [4]: 0.8; Binding of Control serum LUMC to looped peptides [4]: 0.8
4 | AYKTFPPTEPKKDKK | – | 0.1 | – | 0.1 | – | 0.2 | – | 0.0 | – | 0.2 | – | 0.1 | – | 0.1 | – | 0.0 | – | 0.0 | 0.1 | 0.1 | Binding of serum 1a to linear peptides of protein N of SARS-CoV Urbani [1]: 0.2; Binding of serum 1b to linear peptides of protein N of SARS-CoV Urbani [1]: 0.1; Binding of serum 2 to linear peptides of protein N of SARS-CoV Urbani [1]: 0.3; Binding of serum 6 to linear peptides of protein N of SARS-CoV Urbani [1]: 0.2; Binding of serum 37 to linear peptides of protein N of SARS-CoV Urbani [1]: 0.7; Binding of serum 62 to linear peptides of protein N of SARS-CoV Urbani [1]: 0.8; Binding of serum London to linear peptides of protein N of SARS-CoV Urbani [1]: 0.6; Binding of serum SARS-green to linear peptides of protein N of SARS-CoV Urbani [1]: 0.3; Binding of serum SARS-yellow to linear peptides of protein N of SARS-CoV Urbani [1]: 0.7; Binding of a rabbit serum to linear peptides of protein N of SARS-CoV Urbani (Rabbit serum linear peptides) [2]: 0.2; Binding of a rabbit serum to looped/cyclic peptides of protein N of SARS-CoV Urbani (Rabbit serum looped peptides) [2]: 0.0; Control Serum Blood-Bank Looped peptides [4]: 0.3; Control serum Blood-bank linear peptides [4]: 0.7; Control serum LUMC linear peptides [4]: 0.6; Control serum LUMC looped peptides [4]: 0.1
